For series [1] the following is noted: plasma.
Experimental: (§4) For the YAP inhibitory polypeptides modified in above (a) and (b), the IC50 values for TEAD binding and the stability in plasma were measured.
A short description of series [2]: Cell penetration or infiltration of polypeptides. The following applies: penetration of the peptide with RRMKWKK taken as 100%. It is filed as cell-based. An excerpt: In this example, the sequence was modified based on SEQ ID NO.: 1. Some preferred modification based on the tested results included: adding a disulfide linkage within the peptide, or adding a cell-penetrating element.

The subject of series [3] is HCCLM3. It is filed as cell-based. How it is done: (§1) The hepatoma cell line BEL7404 (purchased from The Chinese Academy of Sciences cell bank) was a cell line with high expression of YAP protein; HCCLM3 (purchased from The Chinese Academy of Sciences cell bank) was a cell line with low expression of YAP protein. The hepatoma cell lines (BEL7404 or HCCLM3) were inoculated into a 96-well plate at the concentration of 2000 cells/well, and incubated overnight in RPMI1640 containing 1% bovine serum at 37° C. The hepatoma cell lines were treated with polypeptides having different concentrations at 37° C. for 72 h.
(§2) Moreover, IC50 values of the cells in 1.1 were determined using CCK-8 kit.
(§3) The polypeptide represented by SEQ ID NO.:1 was further modified. The IC50 values of the polypeptides at a concentration of 1% in cell cultivating for 72 h were measured.

Series [4] has as its system BEL7404. It is filed as cell-based. How it is done: as §1, §2, §3
Series [5] concerns MHCC97L. Kind of series: Cell proliferation inhibition of MHCC97L by liposome formulations / acylated polypeptides, CCK-8. It is filed as cell-based. How it is done:
MHCC97L (ATCC) cells were seeded in 96-well plates with 10% FBS DMEM medium at a density of 4000 cells/well and incubated overnight at 37° C. […] The cell viability was determined by CCK-8 kit.

Series [6] has as its system BEL7404. In words: Cell proliferation inhibition of BEL7404 by liposome formulations / acylated polypeptides, CCK-8. It is filed as cell-based.
Series [7] in a line: Stability in plasma (residual peptide).
Experimental: as §4
A short description of series [8]: in vitro. The following applies: plasma.
Experimental: as §4
Series [9] concerns the target TEAD (UniProt P28347). Kind of series: TEAD binding (TR-FRET test). How it is done: The interaction of the two molecules makes the two fluorophores close to each other and generate energy transfer, and then fluoresce at specific wavelength is transmitted.
The sequences of the modified peptides were represented by SEQ ID NOs.: 8 and 9. The IC50 values for TEAD binding and stability in plasma were measured.
The modified polypeptides were tested to measure IC50 values for TEAD binding and stability in plasma.
For orientation: Time-resolved FRET reads energy transfer from a long-lived donor to a nearby acceptor.

Read-outs that look alike come from different tables or passages of the source. Positions of bridges follow the written chain, without caps; N, C: chain ends. Non-standard residues stand in square brackets, D forms with d. Residues, ends and D or L forms follow the SMILES beside them. No end group written: not given here. *: point of attachment. Phe(3-Cl) = N[C@@H](Cc1cccc(Cl)c1)C(=O)O; Stearoyl = CCCCCCCCCCCCCCCCCC(=O)*; hCys = N[C@@H](CCS)C(=O)O; Nle = CCCC[C@H](N)C(=O)O; Orn = NCCC[C@H](N)C(=O)O; Dab = NCC[C@H](N)C(=O)O

One may read the IC50 as the concentration that inhibits the measured activity by half.

Chain of TEAD (P28347 whole entry): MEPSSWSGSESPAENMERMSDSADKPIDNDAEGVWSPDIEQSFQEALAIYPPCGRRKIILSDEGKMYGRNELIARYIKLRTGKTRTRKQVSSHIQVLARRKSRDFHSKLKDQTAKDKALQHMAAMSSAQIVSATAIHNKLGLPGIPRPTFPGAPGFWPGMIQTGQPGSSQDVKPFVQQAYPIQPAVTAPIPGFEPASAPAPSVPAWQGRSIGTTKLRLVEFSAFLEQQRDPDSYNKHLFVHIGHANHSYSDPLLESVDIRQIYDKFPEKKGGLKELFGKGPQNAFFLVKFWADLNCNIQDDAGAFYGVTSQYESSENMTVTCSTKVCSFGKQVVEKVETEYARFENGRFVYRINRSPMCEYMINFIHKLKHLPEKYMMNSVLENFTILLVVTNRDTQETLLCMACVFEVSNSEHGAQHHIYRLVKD

Regarding “3: Peptide (SEQ ID NO.: 1) + Cell-penetrating element 1 (RRMKWKK, SEQ ID NO.: 13) (VPMRLRKLPDSFFKPPERRMKWKK; cell penetrating element; listed as Homo sapiens) [Peptide 3]”, the “Stability (4 h)” value in series [1] is 49%. The “Percentage of Cell penetration or infiltration” value (from here on “Percentage”) in [2] is given as 100%.

For “4: Peptide (SEQ ID NO.: 1) + Cell-penetrating element 2 (RGRKKRRQRRR, SEQ ID NO.: 14) (VPMRLRKLPDSFFKPPERGRKKRRQRRR; cell penetrating element; listed as Homo sapiens) [Peptide 4]”, the “Percentage” value in series [2] was found to be 135%.

As to “32 (VPXLXKKXPASFKCPPRRMKWKK; (3)..(3) Xaa=(3Cl-)F; (5)..(5) Xaa=Hcy; (8)..(8) Xaa=Nle) [compound 32]”, the half-inhibitory concentration (IC50) in [3] (concentration of 1% in cell cultivating for 72 h, read-out: IC50 HCCLM3) was found to be 319 ± 17.5 µM; in series [4] (concentration of 1% in cell cultivating for 72 h, read-out: IC50 BEL7404), 38.4 ± 3.8 µM.

For the molecule `CCCCCCCCCCCCCCCCCC(=O)NCCCC[C@H](NC(=O)[C@@H]1CSSCC[C@H](NC(=O)[C@H](CCCCN)NC(=O)[C@H](CCCCN)NC(=O)[C@H](CC(C)C)NC(=O)[C@H](Cc2cccc(Cl)c2)NC(=O)[C@@H]2CCCN2C(=O)[C@@H](NC(C)=O)C(C)C)C(=O)N[C@@H](CCCC)C(=O)N2CCC[C@H]2C(=O)N[C@@H](C)C(=O)N[C@@H](CO)C(=O)N[C@@H](Cc2ccccc2)C(=O)N[C@@H](CCCCN)C(=O)N2CCC[C@H]2C(=O)N2CCC[C@H]2C(=O)N1)C(N)=O` [P49 polypeptide] (Ac-VP[Phe(3-Cl)]LKK[hCys][Nle]PASFKPPCK(Stearoyl)-NH2; disulfide 7-16), the half-maximal inhibitory concentration (IC50) in [5] was determined as 7.83 ± 2.69 µM; in [6], 2.02 ± 0.39 µM.

`CSCC[C@H](NC(=O)[C@@H]1CCCN1C(=O)[C@@H](N)C(C)C)C(=O)N[C@H]1CCSSC[C@@H](C(=O)N[C@@H](CCCCN)C(=O)N2CCC[C@H]2C(=O)N2CCC[C@H]2C(=O)N[C@@H](CCC(=O)O)C(=O)O)NC(=O)[C@H](Cc2ccccc2)NC(=O)[C@H](CO)NC(=O)[C@H](CC(=O)O)NC(=O)[C@@H]2CCCN2C(=O)[C@H](CC(C)C)NC(=O)[C@H](CCCCN)NC(=O)[C@H](CCCNC(=N)N)NC(=O)[C@H](CC(C)C)NC1=O` [Peptide 2]: the “Percentage” value in series [2] is given as 8%. Further, the fraction remaining at 4 h in series [7] (plasma, Stability (4 h), plasma, percentage of residual peptides after 4 h) is 93%.

Turning to `CSCC[C@H](NC(=O)[C@@H]1CCCN1C(=O)[C@@H](N)C(C)C)C(=O)N[C@@H](CCCNC(=N)N)C(=O)N[C@@H](CC(C)C)C(=O)N[C@@H](CCCNC(=N)N)C(=O)N[C@@H](CCCCN)C(=O)N[C@@H](CC(C)C)C(=O)N1CCC[C@H]1C(=O)N[C@@H](CC(=O)O)C(=O)N[C@@H](CO)C(=O)N[C@@H](Cc1ccccc1)C(=O)N[C@@H](Cc1ccccc1)C(=O)N[C@@H](CCCCN)C(=O)N1CCC[C@H]1C(=O)N1CCC[C@H]1C(=O)N[C@@H](CCC(=O)O)C(=O)O` [SEQ ID NO.: 1], the values for the IC50 in series [3] (72 h) and in [4] (72 h) were 809 ± 27.4 µM and 388 ± 43.6 µM, respectively. In addition, in [7], the “stability (in words)” value is given as “low stability”. The share remaining at 4 h in series [7] (plasma) came out at 0%. Moreover, the “Stability (>24 h)” value in [7] (plasma, percentage of residual peptides after >24 h) is reported as 0%.

Take `CC(C)C[C@@H]1NC(=O)[C@@H](NC(=O)[C@H](Cc2ccccc2)NC(=O)[C@@H]2CCCN2C(=O)[C@@H](N)C(C)C)CCSSC[C@@H](C(=O)N[C@@H](CCCCN)C(=O)N2CCC[C@H]2C(=O)N2CCC[C@H]2C(=O)N[C@@H](CCC(=O)O)C(=O)O)NC(=O)[C@H](Cc2ccccc2)NC(=O)[C@H](CO)NC(=O)[C@H](CC(=O)O)NC(=O)[C@@H]2CCCN2C(=O)[C@H](CC(C)C)NC(=O)[C@H](CCCN)NC(=O)[C@H](CCCNC(=N)N)NC1=O` [compound 5] (H-VPF[hCys]LR[Orn]LPDSFCKPPE-OH; disulfide 4-13 (inferred); N-terminus and C-terminus assumed): the fraction remaining at 4 h in series [8] is 99%. Also, the half-inhibitory concentration (IC50) in series [9] was determined as 0.043 µM.

On to `CC(C)C[C@@H]1NC(=O)[C@@H](NC(=O)[C@H](Cc2ccccc2)NC(=O)[C@@H]2CCCN2C(=O)[C@@H](N)C(C)C)CCSSC[C@@H](C(=O)N[C@@H](CCCCN)C(=O)N2CCC[C@H]2C(=O)N2CCC[C@H]2C(=O)N[C@@H](CCC(=O)O)C(=O)O)NC(=O)[C@H](Cc2ccccc2)NC(=O)[C@H](CO)NC(=O)[C@H](CC(=O)O)NC(=O)[C@@H]2CCCN2C(=O)[C@H](CC(C)C)NC(=O)[C@H](CCN)NC(=O)[C@H](CCCNC(=N)N)NC1=O` [compound 6] (H-VPF[hCys]LR[Dab]LPDSFCKPPE-OH; disulfide 4-13 (inferred); N-terminus and C-terminus assumed), for which, in series [8], the fraction remaining at 4 h stood at 98%. This molecule displayed a concentration for half-maximal inhibition (IC50) in [9] of 0.028 µM.

In the case of `CSCC[C@H](NC(=O)[C@@H]1CCCN1C(=O)[C@@H](N)C(C)C)C(=O)N[C@H]1CSSC[C@@H](C(=O)N[C@@H](Cc2c[nH]cn2)C(=O)N2CCC[C@H]2C(=O)N2CCC[C@H]2C(=O)N[C@@H](CCC(=O)O)C(=O)O)NC(=O)[C@H](Cc2ccccc2)NC(=O)[C@H](CO)NC(=O)[C@H](CCC(=O)O)NC(=O)[C@@H]2CCCN2C(=O)[C@H](CC(C)C)NC(=O)[C@H](CCCCN)NC(=O)[C@H](CCCNC(=N)N)NC(=O)[C@H](CC(C)C)NC1=O` [compound 8] (H-VPMCLRKLPESFCHPPE-OH; disulfide 4-13; N-terminus and C-terminus assumed), in series [8], the fraction remaining at 4 h is 105%. The same molecule came in with a half-maximal inhibitory concentration (IC50) in [9] of 0.028 µM.

Consider `CSCC[C@H](NC(=O)[C@@H]1CCCN1C(=O)[C@@H](N)C(C)C)C(=O)N[C@H]1CCSSC[C@@H](C(=O)N[C@@H](CC(=O)O)C(=O)N2CCC[C@H]2C(=O)N2CCC[C@H]2C(=O)N[C@@H](CCC(=O)O)C(=O)O)NC(=O)[C@H](Cc2ccccc2)NC(=O)[C@H](CO)NC(=O)[C@H](CS)NC(=O)[C@@H]2CCCN2C(=O)[C@H](CC(C)C)NC(=O)[C@H](CCCCN)NC(=O)[C@H](CCCNC(=N)N)NC(=O)[C@H](CC(C)C)NC1=O` [compound 9] (H-VPM[hCys]LRKLPCSFCDPPE-OH; disulfide 4-13), for which the fraction remaining at 4 h in series [8] was 100%. The molecule further gave an IC50 in [9] of 0.025 µM.

Regarding PAGWEMAKTSSGQRYF [compound 20], the IC50 is over 1000 µM in series [3] (72 h) and 444 ± 46.5 µM in series [4] (72 h).

Consider PQGQGPPSGPGQPAPA [compound 16], for which the figures for the concentration for half-maximal inhibition (IC50) in series [3] (72 h) and in [4] (72 h) were over 1000 µM and 242 ± 27.2 µM, respectively.
